Patent US20110263693A1, “CELASTROL, GEDUNIN, AND DERIVATIVES THEREOF AS HSP90 INHIBITORS” (DANA-FARBER CANCER INSTITUTE, INC., priority 2006, published 2011)

Key:
HSP90-HOP interaction = experiment: HSP90 coimmunoprecipitation, HOP; format: cell-based; settings: SKBR-3 cells; celastrol 2.5 μM, 12 hr
Experimental: Geldanamycin and other HSP90 inhibitors are known to inhibit p23 association with HSP90 (Felts et al., 2003). In contrast, HSP90-HOP interaction was unaltered by celastrol and other HSP90 inhibitors (FIG. 7F). Thus, celastrol inhibits the functional interactions of HSP90 and suppresses HSP90 client levels.
(§1) SKBR-3 cells were treated with vehicle, celastrol (2.5 μM, 12 hr), and PU24FCI (20 μM, 24 hr) (Vilenchik et al., 2004). Cells were lysed in 20 mM Tris HCl (pH 7.4), 25 mM NaCl, 2 mM DDT, 20 mM Na2MoO4, 0.1% NP-40, and […]. Lysates were incubated for 2 hr at 4° C., rotating, and then centrifuged at 13,000×g for 10 min. Protein (500 μg) was incubated with H9010 anti-HSP90 antibody for 1 hr at 4° C., rotating. Protein G agarose (30 μl; Upstate) was added to each sample, and samples were then incubated for 1 hr at 4° C., rotating. The beads were washed five times with 1 ml lysis buffer. Bound proteins were isolated by boiling in sample buffer. The levels of HSP90 and coimmunoprecipitating proteins were analyzed by western blot.

hERG potassium channel = hERG potassium channel (Homo sapiens, UniProt Q12809); settings: by inhibiting hERG maturation (Sun et al., 2006); cited from earlier work
Chain of hERG potassium channel (Q12809 whole entry): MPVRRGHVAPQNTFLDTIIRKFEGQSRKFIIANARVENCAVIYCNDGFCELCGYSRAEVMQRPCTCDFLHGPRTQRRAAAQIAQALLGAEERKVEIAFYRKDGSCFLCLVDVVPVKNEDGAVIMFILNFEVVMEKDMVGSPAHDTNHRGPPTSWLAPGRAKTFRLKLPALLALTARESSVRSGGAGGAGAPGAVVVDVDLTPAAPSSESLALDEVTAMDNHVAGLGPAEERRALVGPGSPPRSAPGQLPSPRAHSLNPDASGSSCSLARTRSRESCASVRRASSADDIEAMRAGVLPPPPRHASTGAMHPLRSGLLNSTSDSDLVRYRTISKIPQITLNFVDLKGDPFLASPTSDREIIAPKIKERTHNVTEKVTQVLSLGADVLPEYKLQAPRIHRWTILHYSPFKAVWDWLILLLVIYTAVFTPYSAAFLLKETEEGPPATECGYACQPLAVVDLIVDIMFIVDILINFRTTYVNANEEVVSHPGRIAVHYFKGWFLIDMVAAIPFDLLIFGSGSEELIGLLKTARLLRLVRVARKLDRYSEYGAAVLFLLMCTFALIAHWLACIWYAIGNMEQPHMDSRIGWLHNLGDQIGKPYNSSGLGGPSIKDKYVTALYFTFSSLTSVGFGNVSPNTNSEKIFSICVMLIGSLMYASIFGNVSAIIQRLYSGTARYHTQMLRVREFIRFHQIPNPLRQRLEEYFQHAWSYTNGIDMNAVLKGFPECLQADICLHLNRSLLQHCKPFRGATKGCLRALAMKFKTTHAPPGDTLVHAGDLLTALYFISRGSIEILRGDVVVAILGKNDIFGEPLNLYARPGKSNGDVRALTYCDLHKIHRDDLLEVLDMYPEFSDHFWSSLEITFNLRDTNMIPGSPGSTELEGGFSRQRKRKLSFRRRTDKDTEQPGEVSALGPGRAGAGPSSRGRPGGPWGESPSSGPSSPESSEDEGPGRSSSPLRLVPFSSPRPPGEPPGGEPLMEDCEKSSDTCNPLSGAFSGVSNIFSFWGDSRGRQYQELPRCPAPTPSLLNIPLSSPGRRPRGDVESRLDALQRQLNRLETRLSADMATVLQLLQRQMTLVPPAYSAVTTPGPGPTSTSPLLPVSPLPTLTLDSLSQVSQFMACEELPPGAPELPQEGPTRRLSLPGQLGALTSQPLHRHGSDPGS

HSP70 = settings: Westerheide et al., 2004; cited from earlier work
Raf-1 = experiment: Western blot of HSP90 client Raf-1 level; format: cell-based; settings: LNCaP, 1.25 μM, 24 hours
[1] = tested on: HSP90 interaction with the cochaperone p23; experiment: HSP90 coimmunoprecipitation, p23; format: cell-based; settings: SKBR-3 cells; celastrol 2.5 μM, 12 hr
Experimental: Geldanamycin and other HSP90 inhibitors are known to inhibit p23 association with HSP90 (Felts et al., 2003).
as §1

celastrol signature = experiment: Connectivity Map query with the celastrol signature; format: cell-based, human
How it was run: (§2)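 LNCaP cells received celastrol 1.25 μM or gedunin 20 μM for 6 h. Each signature was scored by Kolmogorov–Smirnov-based connectivity against 453 build01 profiles, mostly 6 h treatments of MCF7 cells.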

gedunin signature = experiment: Connectivity Map query with the gedunin signature; format: cell-based, human
How it was run: as §2

[2] = tested on: mouse models of arthritis; settings: purified celastrol, 1-3 mg/kg daily; cited from earlier work
[3] = tested on: rat models for Alzheimer's disease; settings: 7 mg/kg daily; cited from earlier work

In the case of `CC1=C(O)C(=O)C=C2C1=CC=C1[C@@]2(C)CC[C@@]2(C)[C@@H]3C[C@](C)(C(=O)O)CC[C@]3(C)CC[C@]12C` [celastrol], the “HSP90-HOP interaction (coimmunoprecipitation)” value (HSP90-HOP interaction) is given as “unaltered”, the “hERG potassium channel activity” value (hERG potassium channel) is given as “suppress hERG potassium channel activity” and the HSP70 levels (HSP70) is given as “induce HSP70 levels”. The “level of Raf-1” value (Raf-1) was “decreases the levels”, the “HSP90 interaction with cochaperone p23 (coimmunoprecipitation)” value [1] was “reduced HSP90 interaction with the cochaperone p23” and the “celastrol score (connectivity score)” value (celastrol signature; enrichment of the celastrol signature (1.25 μM celastrol at 6 h, LNCaP) in the compound's Connectivity Map profiles, 6 hr treatment) was 0.85. The “Connectivity Map rank of match for the celastrol signature” value (celastrol signature; out of 164 compounds, signature from LNCaP 1.25 μM, 6 hr) was “fourth-ranked match”, the “gedunin score (connectivity score)” value (gedunin signature; enrichment of the gedunin signature (20 μM gedunin at 6 hours, LNCaP) in the compound's Connectivity Map profiles, 6 hr treatment) was 0.997 and the “Connectivity Map rank of match for the gedunin signature” value (gedunin signature; out of 164 compounds, signature from LNCaP 20 μM, 6 hr) was “top match”. The “bioactivity in mouse models of arthritis” value [2] was “significant bioactivity” and the “activity in rat models for Alzheimer's disease” value [3] was “activity”.
